Results from ChEMBL document CHEMBL4800728, “Data for DCP probe JNJ-54119936” (2021).

Key:
[1] = biological target: Sigma non-opioid intracellular receptor 1 (Homo sapiens, UniProt Q99720); assay: GPCRScan assay: inhibition of Sigma 1; set-up: radioligand conc. used [nm] 4.0 – 5.0, parental cells HEKT
[2] = biological target: Aurora kinase B (Homo sapiens) (UniProt Q96GD4); assay: Aurora_B Invitrogen kinase panel; conditions: Compound concentration 10.0 uM
[3] = biological target: Ephrin type-A receptor 2 (Homo sapiens) (UniProt P29317); assay: EphA2 Invitrogen kinase panel; conditions: Compound concentration 10.0 uM
[4] = biological target: Glycogen synthase kinase-3 alpha (Homo sapiens) (UniProt P49840); assay: GSK3alpha Invitrogen kinase panel; conditions: Compound concentration 10.0 uM
[5] = biological target: Glycogen synthase kinase-3 beta (Homo sapiens) (UniProt P49841); assay: GSK3beta Invitrogen kinase panel; conditions: Compound concentration 10.0 uM
Sequence of Glycogen synthase kinase-3 beta (Homo sapiens) (P49841 whole entry, looked up): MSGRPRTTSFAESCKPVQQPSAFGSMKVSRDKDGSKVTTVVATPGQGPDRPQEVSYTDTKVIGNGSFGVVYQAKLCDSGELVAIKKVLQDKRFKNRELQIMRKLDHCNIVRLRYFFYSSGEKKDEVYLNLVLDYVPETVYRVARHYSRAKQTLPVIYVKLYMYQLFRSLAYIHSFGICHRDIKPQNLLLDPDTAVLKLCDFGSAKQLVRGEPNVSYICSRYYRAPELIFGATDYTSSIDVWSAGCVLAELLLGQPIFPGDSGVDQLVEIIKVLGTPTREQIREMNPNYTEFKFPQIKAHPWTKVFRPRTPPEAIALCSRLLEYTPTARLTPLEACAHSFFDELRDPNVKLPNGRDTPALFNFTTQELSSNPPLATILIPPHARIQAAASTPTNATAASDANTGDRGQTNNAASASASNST

[6] = biological target: Mitogen-activated protein kinase 12 (Homo sapiens) (UniProt P53778); assay: p38gamma Invitrogen kinase panel; conditions: Compound concentration 10.0 uM
[7] = biological target: Mitogen-activated protein kinase 13 (Homo sapiens) (UniProt O15264); assay: p38delta Invitrogen kinase panel; conditions: Compound concentration 10.0 uM
[8] = biological target: Serine/threonine-protein kinase pim-2 (Homo sapiens) (UniProt Q9P1W9); assay: Pim2 Invitrogen kinase panel; conditions: Compound concentration 10.0 uM
Sequence of Serine/threonine-protein kinase pim-2 (Homo sapiens) (Q9P1W9 whole entry, looked up): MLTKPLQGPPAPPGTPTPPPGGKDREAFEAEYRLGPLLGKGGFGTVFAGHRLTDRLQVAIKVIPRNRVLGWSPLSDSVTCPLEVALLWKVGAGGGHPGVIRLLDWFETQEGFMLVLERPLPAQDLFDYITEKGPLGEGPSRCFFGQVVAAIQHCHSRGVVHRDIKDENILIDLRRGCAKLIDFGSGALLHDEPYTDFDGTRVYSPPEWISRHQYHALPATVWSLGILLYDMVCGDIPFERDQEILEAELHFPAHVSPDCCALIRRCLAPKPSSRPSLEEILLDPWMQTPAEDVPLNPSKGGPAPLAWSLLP

[9] = biological target: Tyrosine-protein kinase ZAP-70 (Homo sapiens) (UniProt P43403); assay: ZAP_70 Invitrogen kinase panel; conditions: Compound concentration 10.0 uM
Sequence of Tyrosine-protein kinase ZAP-70 (Homo sapiens) (P43403 whole entry): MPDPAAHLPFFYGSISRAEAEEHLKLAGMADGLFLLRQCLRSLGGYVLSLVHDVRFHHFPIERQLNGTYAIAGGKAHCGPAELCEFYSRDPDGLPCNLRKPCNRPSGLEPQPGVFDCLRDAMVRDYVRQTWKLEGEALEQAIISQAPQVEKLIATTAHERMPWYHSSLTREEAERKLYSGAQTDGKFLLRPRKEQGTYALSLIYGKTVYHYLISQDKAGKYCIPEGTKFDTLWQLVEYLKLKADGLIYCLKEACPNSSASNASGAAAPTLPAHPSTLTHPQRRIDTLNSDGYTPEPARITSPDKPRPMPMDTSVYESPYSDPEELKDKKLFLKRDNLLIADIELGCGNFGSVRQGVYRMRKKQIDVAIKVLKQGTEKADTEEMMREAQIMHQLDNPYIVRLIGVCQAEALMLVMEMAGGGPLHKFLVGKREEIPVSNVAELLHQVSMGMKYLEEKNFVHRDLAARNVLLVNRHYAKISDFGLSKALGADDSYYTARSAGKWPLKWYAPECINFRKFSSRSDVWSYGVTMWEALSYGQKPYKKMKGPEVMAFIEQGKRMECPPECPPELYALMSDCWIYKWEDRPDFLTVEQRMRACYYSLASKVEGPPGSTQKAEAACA

[10] = biological target: Peroxisome proliferator-activated receptor gamma (Homo sapiens, UniProt P37231); assay: PPARgamma In-house nuclear receptor screen
Sequence of Peroxisome proliferator-activated receptor gamma (P37231 whole entry): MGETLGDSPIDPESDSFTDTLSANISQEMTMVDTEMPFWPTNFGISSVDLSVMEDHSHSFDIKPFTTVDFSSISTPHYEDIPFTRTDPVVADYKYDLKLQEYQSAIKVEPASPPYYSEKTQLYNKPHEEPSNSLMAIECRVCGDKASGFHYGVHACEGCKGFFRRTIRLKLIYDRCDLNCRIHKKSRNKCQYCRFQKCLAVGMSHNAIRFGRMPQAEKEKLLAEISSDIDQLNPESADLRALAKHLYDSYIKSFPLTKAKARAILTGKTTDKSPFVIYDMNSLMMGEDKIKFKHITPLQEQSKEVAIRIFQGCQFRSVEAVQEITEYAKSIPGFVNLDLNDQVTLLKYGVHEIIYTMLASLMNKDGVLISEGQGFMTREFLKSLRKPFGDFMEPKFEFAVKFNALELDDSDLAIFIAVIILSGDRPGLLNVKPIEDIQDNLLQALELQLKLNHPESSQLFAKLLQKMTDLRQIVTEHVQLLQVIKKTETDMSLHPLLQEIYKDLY

[11] = biological target: T1, CAR (nuclear receptor subfamily 1 group I member 3) (Homo sapiens, UniProt Q14994); assay: (§1) CAR In-house nuclear receptor screen; conditions: human; compound concentration 3 uM
T1 sequence (Q14994 whole entry): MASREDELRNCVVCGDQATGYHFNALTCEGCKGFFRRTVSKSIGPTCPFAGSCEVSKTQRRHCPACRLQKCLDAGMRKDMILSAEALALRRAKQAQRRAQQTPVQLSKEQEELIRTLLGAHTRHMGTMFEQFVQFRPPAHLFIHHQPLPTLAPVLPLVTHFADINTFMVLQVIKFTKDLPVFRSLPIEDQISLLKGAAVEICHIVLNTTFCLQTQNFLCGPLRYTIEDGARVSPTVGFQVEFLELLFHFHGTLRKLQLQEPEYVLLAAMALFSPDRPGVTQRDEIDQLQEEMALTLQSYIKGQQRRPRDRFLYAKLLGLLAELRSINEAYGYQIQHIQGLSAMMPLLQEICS

[12] = biological target: Nuclear receptor subfamily 1 group I member 3 (Homo sapiens, UniProt Q14994); assay: as §1
[13] = biological target: D(2) dopamine receptor (Homo sapiens) (UniProt P14416); assay: D2S (h) CEREP screen; conditions: Compound concentration 1.0 uM
[14] = biological target: Endothelin-1 receptor (Homo sapiens) (UniProt P25101); assay: ETA (h) CEREP screen; conditions: Compound concentration 10.0 uM
[15] = biological target: Melanocortin receptor 4 (Homo sapiens) (UniProt P32245); assay: MC4 (h) CEREP screen; conditions: Compound concentration 10.0 uM
[16] = biological target: Delta-type opioid receptor (Homo sapiens) (UniProt P41143); assay: Delta2 (h) CEREP screen; conditions: Compound concentration 10.0 uM
Sequence of Delta-type opioid receptor (Homo sapiens) (P41143 whole entry): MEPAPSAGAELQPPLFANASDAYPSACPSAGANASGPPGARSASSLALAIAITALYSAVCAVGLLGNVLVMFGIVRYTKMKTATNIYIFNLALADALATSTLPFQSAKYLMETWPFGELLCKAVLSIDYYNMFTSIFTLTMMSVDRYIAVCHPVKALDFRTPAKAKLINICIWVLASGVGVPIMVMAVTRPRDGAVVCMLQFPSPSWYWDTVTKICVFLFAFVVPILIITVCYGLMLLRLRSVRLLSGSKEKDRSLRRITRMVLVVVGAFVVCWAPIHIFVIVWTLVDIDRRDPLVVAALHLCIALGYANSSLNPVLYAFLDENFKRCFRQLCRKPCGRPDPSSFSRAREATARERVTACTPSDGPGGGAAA

[17] = biological target: voltage-dependent K+ channel (Homo sapiens, UniProt O43525+O43526+O95259+P16389+P17658+P22001+P22459+P22460+P48547+P51787+P56696+Q03721+Q09470+Q12809+Q14003+Q14721+Q16322+Q6PIU1+Q8NCM2+Q8TAE7+Q8TDN1+Q8TDN2+Q92953+Q96KK3+Q96L42+Q96PR1+Q96RP8+Q9BQ31+Q9H252+Q9H3M0+Q9NR82+Q9NS40+Q9NSA2+Q9NZV8+Q9UIX4+Q9UJ96+Q9UK17+Q9ULD8+Q9ULS6+Q9UQ05); assay: K+ channel (Volt-dependent) CEREP screen; format: protein assay; conditions: compound concentration 10 uM
[18] = biological target: T2, PXR (nuclear receptor subfamily 1 group I member 2) (Homo sapiens, UniProt O75469); assay: PXR Indigo Bioscience nuclear receptor screen
T2 sequence (O75469 whole entry): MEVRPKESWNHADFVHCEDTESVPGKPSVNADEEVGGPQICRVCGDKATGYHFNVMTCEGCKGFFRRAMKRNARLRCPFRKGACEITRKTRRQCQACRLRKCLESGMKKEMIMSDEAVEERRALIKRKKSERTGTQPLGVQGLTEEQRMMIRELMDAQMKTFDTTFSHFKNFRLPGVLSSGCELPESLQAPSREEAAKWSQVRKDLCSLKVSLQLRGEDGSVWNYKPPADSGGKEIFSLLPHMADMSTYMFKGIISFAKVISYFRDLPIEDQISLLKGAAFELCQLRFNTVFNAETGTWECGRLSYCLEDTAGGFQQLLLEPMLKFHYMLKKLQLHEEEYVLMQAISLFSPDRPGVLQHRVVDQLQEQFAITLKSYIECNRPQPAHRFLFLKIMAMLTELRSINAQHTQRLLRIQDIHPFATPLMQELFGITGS

[19] = biological target: 5-hydroxytryptamine receptor 2A (Homo sapiens) (UniProt P28223); conditions: Compound concentration 10.0 uM
[20] = biological target: 5-hydroxytryptamine receptor 5A (Homo sapiens) (UniProt P47898); conditions: Compound concentration 10.0 uM
Sequence of 5-hydroxytryptamine receptor 5A (Homo sapiens) (P47898 whole entry): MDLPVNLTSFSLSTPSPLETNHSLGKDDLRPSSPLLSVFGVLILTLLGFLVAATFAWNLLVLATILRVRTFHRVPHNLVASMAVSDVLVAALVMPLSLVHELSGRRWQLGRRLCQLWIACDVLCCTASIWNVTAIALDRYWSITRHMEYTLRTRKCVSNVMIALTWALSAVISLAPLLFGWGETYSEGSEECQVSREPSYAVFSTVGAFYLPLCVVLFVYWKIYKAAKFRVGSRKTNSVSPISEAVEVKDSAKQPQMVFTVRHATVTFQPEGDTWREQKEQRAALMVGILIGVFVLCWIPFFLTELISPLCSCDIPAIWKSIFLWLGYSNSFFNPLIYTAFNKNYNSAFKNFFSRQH

[21] = biological target: 5-hydroxytryptamine receptor 7 (Homo sapiens) (UniProt P34969); conditions: Compound concentration 10.0 uM
Sequence of 5-hydroxytryptamine receptor 7 (Homo sapiens) (P34969 whole entry): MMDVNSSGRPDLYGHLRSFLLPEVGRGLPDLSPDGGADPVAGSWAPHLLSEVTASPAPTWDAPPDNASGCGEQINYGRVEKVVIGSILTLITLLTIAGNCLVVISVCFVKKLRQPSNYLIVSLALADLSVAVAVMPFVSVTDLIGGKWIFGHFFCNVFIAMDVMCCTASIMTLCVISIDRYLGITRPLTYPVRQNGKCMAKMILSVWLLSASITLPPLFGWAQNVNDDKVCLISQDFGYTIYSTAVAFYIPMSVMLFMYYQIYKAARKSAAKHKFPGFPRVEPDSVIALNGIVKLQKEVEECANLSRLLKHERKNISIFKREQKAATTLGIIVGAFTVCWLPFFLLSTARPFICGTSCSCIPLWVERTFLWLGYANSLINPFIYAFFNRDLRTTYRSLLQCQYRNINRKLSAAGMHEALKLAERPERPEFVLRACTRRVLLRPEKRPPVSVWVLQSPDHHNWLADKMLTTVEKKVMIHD

[22] = biological target: D(4) dopamine receptor (Homo sapiens) (UniProt P21917); conditions: Compound concentration 10.0 uM
[23] = biological target: D(1B) dopamine receptor (Homo sapiens) (UniProt P21918); conditions: Compound concentration 10.0 uM
[24] = biological target: Delta-type opioid receptor (Homo sapiens) (UniProt P41143); conditions: Compound concentration 10.0 uM
[25] = biological target: Alpha-2B adrenergic receptor (Homo sapiens) (UniProt P18089); conditions: Compound concentration 10.0 uM
Sequence of Alpha-2B adrenergic receptor (Homo sapiens) (P18089 whole entry): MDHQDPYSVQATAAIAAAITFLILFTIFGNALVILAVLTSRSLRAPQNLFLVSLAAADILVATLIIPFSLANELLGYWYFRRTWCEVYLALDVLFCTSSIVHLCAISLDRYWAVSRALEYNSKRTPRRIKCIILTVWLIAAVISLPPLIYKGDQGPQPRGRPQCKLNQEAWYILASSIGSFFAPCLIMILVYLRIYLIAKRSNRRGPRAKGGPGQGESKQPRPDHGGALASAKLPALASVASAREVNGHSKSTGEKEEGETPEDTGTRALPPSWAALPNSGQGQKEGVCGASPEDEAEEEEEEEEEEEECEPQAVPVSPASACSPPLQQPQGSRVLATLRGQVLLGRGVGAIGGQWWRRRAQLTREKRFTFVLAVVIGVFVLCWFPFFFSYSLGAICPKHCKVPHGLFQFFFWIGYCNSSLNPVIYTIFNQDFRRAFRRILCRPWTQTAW

[26] = biological target: Beta-1 adrenergic receptor (Homo sapiens) (UniProt P08588); conditions: Compound concentration 10.0 uM
Sequence of Beta-1 adrenergic receptor (Homo sapiens) (P08588 whole entry, looked up): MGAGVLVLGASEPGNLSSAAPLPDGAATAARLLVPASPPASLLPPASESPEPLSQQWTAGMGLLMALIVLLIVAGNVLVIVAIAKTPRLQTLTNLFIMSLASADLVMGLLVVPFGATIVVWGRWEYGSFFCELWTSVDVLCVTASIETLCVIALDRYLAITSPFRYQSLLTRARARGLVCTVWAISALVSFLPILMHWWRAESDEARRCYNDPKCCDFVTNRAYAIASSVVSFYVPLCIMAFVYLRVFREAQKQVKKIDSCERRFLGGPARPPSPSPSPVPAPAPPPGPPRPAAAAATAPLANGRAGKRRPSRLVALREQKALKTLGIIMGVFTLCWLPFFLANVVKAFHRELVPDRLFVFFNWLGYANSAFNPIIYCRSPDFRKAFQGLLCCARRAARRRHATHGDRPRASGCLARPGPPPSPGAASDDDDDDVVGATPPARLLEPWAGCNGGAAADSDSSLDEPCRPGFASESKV

[27] = biological target: Beta-2 adrenergic receptor (Homo sapiens) (UniProt P07550); conditions: Compound concentration 10.0 uM
Sequence of Beta-2 adrenergic receptor (Homo sapiens) (P07550 whole entry, looked up): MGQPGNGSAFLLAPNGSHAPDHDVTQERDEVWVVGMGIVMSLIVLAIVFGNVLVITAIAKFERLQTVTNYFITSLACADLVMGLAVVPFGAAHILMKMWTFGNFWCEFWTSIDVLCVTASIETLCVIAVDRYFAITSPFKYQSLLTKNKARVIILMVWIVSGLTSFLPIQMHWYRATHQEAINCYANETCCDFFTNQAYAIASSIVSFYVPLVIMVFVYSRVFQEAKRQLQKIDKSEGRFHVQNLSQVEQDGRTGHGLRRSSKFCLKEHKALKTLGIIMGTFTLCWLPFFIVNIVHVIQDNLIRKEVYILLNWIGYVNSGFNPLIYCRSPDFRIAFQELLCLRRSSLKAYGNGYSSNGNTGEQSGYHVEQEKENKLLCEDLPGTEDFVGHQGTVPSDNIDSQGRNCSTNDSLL

[28] = biological target: Muscarinic acetylcholine receptor M4 (Homo sapiens) (UniProt P08173); conditions: Compound concentration 10.0 uM
[29] = species on record: Rattus norvegicus; conditions: Compound concentration 10.0 uM
[30] = biological target: Alpha-1D adrenergic receptor (Homo sapiens) (UniProt P25100); conditions: Compound concentration 10.0 uM

Sequence of Sigma non-opioid intracellular receptor 1 (Q99720 whole entry): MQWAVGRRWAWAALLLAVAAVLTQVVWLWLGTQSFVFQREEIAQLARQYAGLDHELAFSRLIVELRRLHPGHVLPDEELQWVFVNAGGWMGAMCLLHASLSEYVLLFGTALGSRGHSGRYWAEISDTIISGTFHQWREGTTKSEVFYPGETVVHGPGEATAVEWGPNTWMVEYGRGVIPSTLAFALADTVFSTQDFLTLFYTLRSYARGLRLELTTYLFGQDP

COc1nc2ccc([C@@](O)(c3ccccc3)C3CCN(C(C)=O)CC3)cc2c(Cl)c1Cc1ccc(-n2cccn2)cc1 [JNJ-54119936]
Ki ([1]; read-out: Ki): 3.13 µM
Ki ([1]; read-out: pKi (converted)): 3.02 µM
inhibition [2]: 21%
inhibition [3]: 6%
inhibition [4]: -4%
inhibition [5]: 3%
inhibition [6]: 2%
inhibition [7]: 14%
inhibition [8]: 1%
inhibition [9]: 5%
IC50 [10]: 5.4 µM
inhibition at 3 µM [11]: 31.2% (not active)
IC50 [12]: 8.4 µM
inhibition [13]: 10%
inhibition [14]: 12%
inhibition [15]: 14%
inhibition [16]: 11%
inhibition at 10 µM [17]: 15% (not active)
inhibition at 0.3 µM ([18]; compound concentration 0.3 uM): -7.63% (not active)
inhibition at 1 µM ([18]; compound concentration 1 uM): -26.4% (not active)
inhibition at 3 µM ([18]; compound concentration 3 uM): 1.01% (not active)
inhibition [19]: 6.87%
inhibition [20]: -0.46%
inhibition [21]: -2.29%
inhibition [22]: -5.45%
inhibition [23]: 33.9%
inhibition [24]: 7.18%
inhibition [25]: 54.6%
inhibition [26]: 15.2%
inhibition [27]: 15.6%
inhibition [28]: 8.86%
inhibition [29]: 35.6%
inhibition [30]: 6.64%
